From patent US20050074485A1, “Anti-inflammatory/anti-microbial peptides for use in dialysis” (priority 2003, published 2005)
“Also recorded” adds a separate entry of the source. Where a SMILES comes first, the peptide text is derived from it. Bridges are numbered along the chain shown (N, C = ends). Roman numbers before positions name the chains, in order. Where no end group is shown, it is not given here. [ ]: non-standard residue; d: D form.

Columns and labels:
[1] = cited from earlier work; for antipyretic potency relative to α-MSH (11-13): centrally administered, rabbit, Deeter et al. 1989
[2] = in vivo
[3] = in vivo; remark: listed apart in the source
[4] = test system: C. albicans (clinical isolate); assay: C. albicans viability by colony forming units; assay type: cell-based, Candida albicans; conditions: 10^−6 M
Protocol: C. albicans (clinical isolate) were obtained from the collection of the Department of Microbiology, Ospedale Maggiore di Milano. C. albicans were maintained on Sabouraud's agar slants and periodically transferred to Sabouraud's agar plates and incubated for 48 hours at 28° C. To prepare stationary growth phase yeast, a colony was taken from the agar plate and transferred into 30 ml Sabouraud-dextrose broth and incubated for 72 hours at 32° C. Cells were centrifuged at 100×g for 10 minutes and the pellet was washed twice with distilled water. Cells were counted and suspended in Hank's balanced salt solution (“HBSS”) to the desired concentration. […] C. albicans (I×10^6/ml in HBSS) was incubated in the presence or absence of α-MSH [1-13], KPV, (SEQ. ID NO.1) or the (“KPV dimer”) at concentrations in the range of 10^−15 to 10^−4M for 2 hours at 37° C. Cells were then washed in cold distilled water and diluted with HBSS to a concentration of 100 organisms/ml. One ml aliquots were dispensed on blood agar plates and incubated for 48 hours at 37° C. Organism viability was estimated from the number of colonies formed.
Fluconazole is a well established antifungal agent. […] The peptides and fluconazole were tested in concentrations of 10^−6 M. There were at least six replicates for each concentration of peptide.

[5] = test system: Enterococcus faecalis (MDR) (ATCC 51299); assay: Broth dilution turbidity test of growth inhibition; assay type: cell-based
Protocol: (§1) These organisms were subcultured onto blood agar plates and incubated for 16-24 hours at 35±2° C. An inoculated needle or loop was touched to each of four or five well isolated colonies of the same morphological type, and the inoculum inoculated into 5 mL of MHB.
(§2) The broth cultures were then allowed to incubate at 35±2° C. until turbidity appeared (usually 2 to 5 hours). […] This turbidity is half the density of a McFarland number one standard and is often referred to as McFarland 0.5 standard (approx. 1.5×10^8 CFU/mL). This turbidity standard was agitated on a vortex mixer immediately before use. Sealed tubes were stored in the dark at room temperature and replaced if the inocula are shown (by count) to be aberrant.
(§3) The broth culture was further diluted to 1:200 in MHB broth (to obtain a final concentration of 10^5 to 10^6 CFU/mL). To determine the initial concentration of the organism in the above solution, serial dilutions were performed 1:10 in MHB four times to achieve a final dilution of 10^−4. Aliquots 1.0 mL from each of the dilutions were placed in duplicate into sterile petri dishes. Approximately 15 to 20 mL of tempered (45±2° C.) MCTA agar media was added. The plates were incubated overnight at 35±2° C. for 16-20 hours. Following the incubation period, the colonies were counted.
(§4) These dilutions were developed according to the procedure: for each drug substance label 9 flasks (10 ml Volumetric) 1 through 9; for each sample add 3 mL of deionized (“DI”) water to a 10 mL volumetric flask; then transfer the amount of anti-microbial and anti-inflammatory peptides as specified below in Table 2; record the actual amount transferred in the laboratory notebook; and add the remaining amount of DI water to bring up to volume of 10 mL.
(§5) 100 μL of the anti-microbial and anti-inflammatory peptide solution from each of the flasks was then added to the correspondingly labeled well; to well number 10 add 100 μL sterile DI Water; and to all ten wells add 100 μL of inoculum created previously.
(§6) The procedure was repeated for each of the seven microorganisms tested.
(§7) Each well was tested for turbidity, as an indicator of growth.

[6] = test system: Streptococcus pyogenes Group A (ATCC 19615); assay: Broth dilution turbidity test of growth inhibition; assay type: cell-based
Protocol: as §1, §2, §3, §4, §5, §6, §7

[7] = test system: Staphylococcus aureus (ATCC29213); assay: S. aureus viability by colony forming units; assay type: cell-based; conditions: 10^−15 to 10^−4M, 2 hours at 37° C.
Protocol: Staphylococcus aureus (ATCC29213) was obtained from the collection of the Department of Microbiology, Ospedale Maggiore di Milano. S. aureus (1×10^6/ml in HBSS) was incubated in the presence or absence of α-MSH [1-13] (SEQ ID NO: 6), α-MSH [11-13] (SEQ. ID NO. 1) or the KPV dimer (SEQ ID NO: 4) at concentrations in the range of 10^−15 to 10^−4M for 2 hours at 37° C. S. aureus were then washed in cold distilled water and diluted with HBSS to a concentration of 100 organisms/ml. One ml aliquots were dispensed on blood agar plates and incubated for 24 hours at 37° C. Organism viability was estimated from the number of colony forming units.

S. aureus = assay: Urokinase-induced growth enhancement of S. aureus; assay type: cell-based, Staphylococcus aureus; conditions: 10^−6 M, recombinant human urokinase 500 U, four hours at 37° C.
Protocol: In this experiment, the influence of α-MSH on urokinase-induced growth-enhancement is determined. […] (SEQ. ID NO.1) at 10^−6 M. Appropriate dilutions of S. aureus were dispensed on agar plates and colonies counted after 24 hours incubation at 37° C.

HIV transcription = conditions: 10^−5M; PMA (1 ng/mL) stimulated UI cells, 24 h
Text: Total RNA was extracted by the guanidine thiocyanate phenol method using an RNA isolation kit (Tripure, Boehringer Mannheim, Indianapolis, Ind.), following the manufacturer's instructions. Ten ng of total RNA were separated by 0.8% agarose/formaldehyde gel electrophoresis and transferred onto nylon membrane. The filters were baked and hybridized for 18 hr with ^32P-labeled HIV-full length probe (kind gift of L. Turchetto and E. Vicenzi, S. Raffaele Hospital, Milan, Italy). The radiolabeling reaction was performed using a DNA labeling kit (Ready-to-go, Pharmacia Biotech, San Francisco, Calif.). Filters were washed and exposed to X-ray film for 5 days. The labeled probe was removed by washing at 80° C. in 0.1×SSC containing 0.1% sodium dodecyl sulphate and then rehybridized with (^32P-labeled glyceraldehyde-3-phosphate dehydrogenase) (GAPDH) cDNA probe. Densitometric analysis was performed using ImageMaster VDS 3.0 software (Pharmacia Biotech) and results were expressed as density units.

[8] = test system: HIV-1 infected promonocytic UI cell line; assay: HIV-p24 release from TNF-α stimulated UI cells (ELISA); assay type: cell-based; conditions: 48 hr
[9] = test system: Candida albicans (ATCC 10231); assay: Broth dilution turbidity test of growth inhibition; assay type: cell-based; conditions: turbidity after 16-20 hours at 35±2° C.
Protocol: as §1, §2, §3, §4, §5, §6, §7

[10] = test system: Staphylococcus epidermidis (ATCC 12228); assay: Broth dilution turbidity test of growth inhibition; assay type: cell-based
Protocol: The following microorganisms were used in the Example: Candida albicans (ATCC 10231); Enterococcus faecalis (MDR) (ATCC 51299); Escherichia coli (ATCC 11229); Pseudomonas aeruginosa (ATCC 9027); Staphylococcus aureus (ATCC 6538); Staphylococcus epidermidis (ATCC 12228); and Streptococcus pyogenes Group A (ATCC 19615). These organisms were subcultured onto blood agar plates and incubated for 16-24 hours at 35±2° C. An inoculated needle or loop was touched to each of four or five well isolated colonies of the same morphological type, and the inoculum inoculated into 5 mL of MHB.
as §2
The broth culture was further diluted to 1:200 in MHB broth (to obtain a final concentration of 10^5 to 10^6 CFU/mL). To determine the initial concentration of the organism in the above solution, serial dilutions were performed 1:10 in MHB four times to achieve a final dilution of 10^−4. […] Following the incubation period, the colonies were counted. […]

[11] = Hiltz et al. 1991; cited from earlier work
[12] = turbidity after 16-20 hours at 35±2° C.

8-13 sequence: α-MSH fragment 8-13 (RWGKPV; ends and bridges not checked; UniProt P01189 145-150, looked up, fragment)
antipyretic potency relative to α-MSH (11-13) [1]: greater than that of the 11-13 sequence

9-13 sequence: α-MSH fragment 9-13 (WGKPV; ends and bridges not checked; UniProt P01189 146-150, looked up, fragment)
antipyretic potency relative to α-MSH (11-13) [1]: almost devoid of activity

10-13 sequence: α-MSH fragment formed by addition of glycine to α-MSH (11-13) (GKPV; ends and bridges not checked; UniProt P01189 147-150, looked up, fragment)
antipyretic potency relative to α-MSH (11-13) [1]: slightly decreased potency

CC(=O)N[C@@H](CSSC[C@H](NC(C)=O)C(=O)N[C@@H](CCCCN)C(=O)N1CCC[C@H]1C(=O)N[C@H](C(N)=O)C(C)C)C(=O)N[C@@H](CCCCN)C(=O)N1CCC[C@H]1C(=O)N[C@H](C(N)=O)C(C)C [KPV dimer, Val-Pro-Lys-AcCys-s-s-CysAc-Lys-Pro-Val] (I: Ac-CKPV-NH2 / II: Ac-CKPV-NH2; disulfide I:1-II:1)
negative side effects [2]: without negative side effects
safety and tolerability [3]: remarkable safety of and tolerability

ACTH (1-39): adrenocorticotropic hormone (SYSMEHFRWGKPVGKKRRPVKVYPAKEDDEASEAFPLEF; listed as Homo sapiens) [reference compound]
reduction of C. albicans viability in comparison with fluconazole [4]: did not reduce C. albicans viability

ACTH fragment (18-39): ACTH fragment (18-39) (PVKVYPAKEDDEASEAFPLEF; listed as Homo sapiens) [reference compound]
reduction of C. albicans viability in comparison with fluconazole [4]: did not reduce C. albicans viability

HFRWGKPV (listed as Homo sapiens) [α-MSH [6-13]]
reduction of C. albicans viability in comparison with fluconazole [4]: most effective

Lysine-Proline-Valine [KPV]
effectiveness against the organism (in words) [5]: effective
effectiveness against the organism (in words) [6]: effective
S. aureus colony formation (CFU) [7]: inhibited S. aureus colony formation
urokinase-enhanced S. aureus colony formation (S. aureus): significantly inhibited the enhancing effect of urokinase; also recorded: significantly inhibited this urokinase-enhancing effect
reduction of C. albicans viability in comparison with fluconazole [4]: most effective
reduction of spliced and unspliced HIV-1 RNA (HIV transcription): approximately 50%

Met-Glu-His-Phe-Arg-Trp-Gly (EHFRWG; listed as Homo sapiens) [α-MSH [4-10], reference compound]
inhibition of C. albicans CFU [4]: approximately 50%

SYSMEHFRWGKPV [α-MSH [1-13]]
S. aureus colony formation (CFU) [7]: inhibited S. aureus colony formation
urokinase-enhanced S. aureus colony formation (S. aureus): significantly inhibited this urokinase-enhancing effect
urokinase-enhanced S. aureus colony formation (S. aureus; listed as α-MSH): significantly inhibited the enhancing effect of urokinase
reduction of C. albicans viability in comparison with fluconazole [4]: most effective
inhibition of p24 release ([8]; 10^−5 M, TNF-α (10 ng/mL) stimulated UI cells): 52.7%
p24 release from TNF-α stimulated UI cells (in words) ([8]; 10^−13 to 10^−4 M): significantly inhibited p24 release

SYSMEHdFRWGKPV (SYSMEH[dF]RWGKPV; ends and bridges not checked) [Phe7]
minimal effective concentration that completely inhibited growth [9]: 10^−3 M
effectiveness against the organism (in words) [5]: effective
minimal effective concentration that completely inhibited growth [5, 12]: 10^−3 M
effectiveness against the organism (in words) [6]: effective
minimal effective concentration that completely inhibited growth [6, 12]: 10^−4 M
effectiveness against the organism (in words) [10]: very effective
minimal effective concentration that completely inhibited growth [10, 12]: 10^−4 M

[Nle4 dPhe7]α-MSH [NDP]
minimal effective concentration that completely inhibited growth [9]: 10^−3 M
potency in reducing fever relative to the parent peptide ([1]; Holdeman and Lipton 1985): approximately ten times more potent than the parent peptide

[dK11] α-MSH (11-13)
anti-inflammatory potency relative to L-form tripeptide α-MSH 11-13 [11]: same general potency as the L-form
